# Experimental data taken from patent EP2948187B1, “HETEROCYCLES AND THEIR RADIOLABELED ANALOGS USEFUL AS COX-1 SELECTIVE INHIBITORS” (Universita' Degli Studi di Bari, priority 2013, dated 2014).
# How the values were obtained:
# COX-1 = COX-1 (Ovis aries, UniProt P05979); assay: COX-1 inhibition assay (as disclosed in Chem. Med. Chem. 2012, 7, 629-641); type: biochemical
# Method: The biological assays were carried out as disclosed in Chem. Med. Chem. 2012, 7, 629 - 641.
# [1] = system: ovarian surface epithelial cells allografted in female nude mice; details: after treatment with SC-560, recent reports; cited from earlier work
# Chain of COX-1 (P05979 25-600): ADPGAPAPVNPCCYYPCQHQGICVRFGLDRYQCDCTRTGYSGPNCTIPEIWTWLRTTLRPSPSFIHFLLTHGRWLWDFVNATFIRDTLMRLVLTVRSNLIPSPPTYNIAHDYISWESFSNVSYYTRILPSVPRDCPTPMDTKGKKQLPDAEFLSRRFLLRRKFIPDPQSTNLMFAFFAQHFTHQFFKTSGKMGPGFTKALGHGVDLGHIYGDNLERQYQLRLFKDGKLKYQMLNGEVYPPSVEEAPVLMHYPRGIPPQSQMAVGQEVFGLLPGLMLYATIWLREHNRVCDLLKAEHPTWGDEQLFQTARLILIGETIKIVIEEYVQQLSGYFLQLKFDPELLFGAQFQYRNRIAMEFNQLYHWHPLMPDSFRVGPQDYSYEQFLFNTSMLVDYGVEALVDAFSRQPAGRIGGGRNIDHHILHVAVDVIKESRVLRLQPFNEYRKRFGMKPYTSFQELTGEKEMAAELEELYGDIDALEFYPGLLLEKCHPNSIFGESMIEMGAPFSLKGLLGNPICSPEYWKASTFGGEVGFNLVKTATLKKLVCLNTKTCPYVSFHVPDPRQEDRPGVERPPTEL
IC50 (COX-1),Structure (SMILES),tumor growth [1]
76 nM,"COc1ccc(-c2noc(C)c2-c2ccc(OC)cc2)cc1 [(III), 3,4-bis(4-methoxyphenyl)-5-methylisoxazole]",
,COc1ccc(-n2nc(C(F)(F)F)cc2-c2ccc(Cl)cc2)cc1 [SC-560],significantly reduction of tumor growth
